{"source": "paper PMC7395068", "about": "“The evolution of strategies to minimise the risk of human drug-induced liver injury (DILI) in drug discovery and development” (Archives of Toxicology, 2020)", "key": {"[1]": {"conditions": "read-out: Human plasma Cmax; total plasma Cmax.tot, median of 9 literature references; cited from earlier work"}, "hLiMTs [2]": {"tested_on": "hLiMTs", "test": "Combined HCI (HCS) and cellular ATP 3D assay in hLiMTs", "conditions": "for AC50 / minimal effective concentration: Homo sapiens"}, "[3]": {"tested_on": "THLE or HepG2 cells, isolated mitochondria, BSEP", "conditions": "cited from earlier work"}, "[4]": {"conditions": "cited from earlier work"}, "PHH": {"tested_on": "PHH", "conditions": "cited from earlier work"}, "HepaRG spheroids": {"tested_on": "HepaRG spheroids", "test": "Combined HCI (HCS) and cellular ATP 3D assay in HepaRG spheroids", "conditions": "for AC50 / minimal effective concentration: Homo sapiens"}, "PHH spheroids": {"tested_on": "PHH spheroids", "conditions": "cited from earlier work"}, "[5]": {"tested_on": "HepG2 C3A spheroid, BSEP, Glu/Gal in HepG2 cells, bioactivation", "conditions": "cited from earlier work"}, "[6]": {"tested_on": "primary human hepatocytes, NIH3T3 fibroblasts, BSEP, CYP3A4", "conditions": "cited from earlier work"}, "[7]": {"conditions": "cited from earlier work", "remark": "listed apart in the source"}, "[8]": {"tested_on": "THLE-Null and THLE-3A4 cells", "conditions": "In vitro Assay; ref Gustafsson 2014; cited from earlier work"}, "[9]": {"test": "Plasma free fraction (fu) and unbound Cmax (Cmax,u)", "assay_type": "in vitro ADME, human", "conditions": "unbound plasma Cmax", "procedure": "The prediction of DILI severity was evaluated further using the 3D combined HCI assays using plasma-free fraction. The majority of fu values were obtained from literature, when unavailable in-house prediction was utilised. Unbound plasma Cmax concentrations (Cmax,u) were derived by multiplying total plasma Cmax with the corresponding free fraction (fu) for each compound."}, "PHH 3D spheroids": {"tested_on": "PHH 3D spheroids", "design": "method as in Bell et al. 2018", "conditions": "14-day exposure, three donors, ref Bell et al. 2018; cited from earlier work"}, "OATP1B1": {"tested_on": "OATP1B1", "conditions": "known substrates; cited from earlier work"}, "[10]": {"conditions": "plasma free fraction; cited from earlier work"}, "hLiMTs [11]": {"tested_on": "hLiMTs", "conditions": "cited from earlier work"}, "rBsep": {"tested_on": "rBsep", "conditions": "In vitro Assay; ref Dawson 2012; cited from earlier work"}, "[12]": {"tested_on": "HepG2 cells, primary human hepatocytes", "conditions": "In vitro Assay; ref Garside 2014; cited from earlier work"}, "[13]": {"conditions": "ref Chen 2011; cited from earlier work"}, "[14]": {"conditions": "Microtissue model structural based (HCI), combined HCS and ATP, MEC < 25 × Cmax.tot cut-off"}, "[15]": {"conditions": "Modeled in vitro assays (cytotoxicity, mitochondrial dysfunction, BSEP), ref Aleo et al. 2019"}, "[16]": {"conditions": "In vitro Assay, ref Proctor 2017"}, "[17]": {"conditions": "In vitro Assay, ref Schadt 2015"}}, "note": "Read-outs that look alike come from different tables or passages of the source.", "data": [{"smiles": "COc1ccccc1Oc1c(NS(=O)(=O)c2ccc(C(C)(C)C)cc2)nc(-c2ncccn2)nc1OCCO", "note": "[bosentan]", "values": [{"measurement": "Cmax", "setting": "[1]", "value": 7.43, "unit": "µM"}, {"measurement": "AC50", "setting": "hLiMTs [2]; read-out: ATP endpoint AC50", "value": 57.9, "unit": "µM"}, {"measurement": "minimal effective concentration", "setting": "hLiMTs [2]; read-out: ATP endpoint MEC", "value": 29.4, "unit": "µM"}, {"measurement": "AC50", "setting": "hLiMTs [2]; read-out: HCS endpoint AC50", "value": 179, "unit": "µM"}, {"measurement": "minimal effective concentration", "setting": "hLiMTs [2]; read-out: HCS endpoint MEC", "value": 63, "unit": "µM"}, {"measurement": "DILI prediction hLiMTs (HCS-MEC)", "setting": "hLiMTs [2]; [14]", "value": "+VE (MEC < 25 × Cmax.tot cut-off)"}, {"measurement": "hLiMTs <25x Avg Cmax ATP", "setting": "hLiMTs [2]; hLiMTs, ATP endpoint, cut-off <25x Avg Cmax", "value": "+ve"}, {"measurement": "hLiMTs <100x Avg Cmaxu ATP", "setting": "hLiMTs [2]; hLiMTs, ATP endpoint, cut-off <100x Avg Cmaxu", "value": "-ve"}, {"measurement": "hLiMTs <25x Avg Cmax HCS", "setting": "hLiMTs [2]; hLiMTs, HCS endpoints, cut-off <25x Avg Cmax", "value": "+ve"}, {"measurement": "hLiMTs <100x Avg Cmaxu HCS", "setting": "hLiMTs [2]; hLiMTs, HCS endpoints, cut-off <100x Avg Cmaxu", "value": "-ve"}, {"measurement": "hLiMTs <25x Avg Cmax All", "setting": "hLiMTs [2]; hLiMTs, all endpoints (ATP and HCS), cut-off <25x Avg Cmax", "value": "+ve"}, {"measurement": "hLiMTs Cmax max All", "setting": "hLiMTs [2]; hLiMTs, all endpoints, Cmax max used", "value": "+ve"}, {"measurement": "hLiMTs Cmax min All", "setting": "hLiMTs [2]; hLiMTs, all endpoints, Cmax min used", "value": "+ve"}, {"measurement": "hLiMTs <10 uM All", "setting": "hLiMTs [2]; hLiMTs, all endpoints, cut-off <10 uM", "value": "-ve"}, {"measurement": "hLiMTs <100x Avg Cmaxu All", "setting": "hLiMTs [2]; hLiMTs, all endpoints, cut-off <100x Avg Cmaxu", "value": "-ve"}, {"measurement": "Partition Hybrid HRM Score", "setting": "[3]; In vitro Assay, ref Aleo 2019", "value": "+VE"}, {"measurement": "Ro2 Hybrid HRM Score", "setting": "[3]; In vitro Assay, ref Aleo 2019", "value": "+VE"}, {"measurement": "Partition Hybrid HRM Score ≥4, Aleo (2019)", "setting": "[3]; [15]", "value": "+VE (Partition Hybrid HRM Score ≥4)"}, {"measurement": "Partition Hybrid HRM Score ≥8, Aleo (2019)", "setting": "[3]; [15]", "value": "+VE (Partition Hybrid HRM Score ≥8)"}, {"measurement": "Rule of Two hybrid HRM Score ≥3, Aleo (2019)", "setting": "[3]; [15]", "value": "+VE (Rule of Two hybrid HRM Score ≥3)"}, {"measurement": "Rule of Two hybrid HRM Score ≥8, Aleo (2019)", "setting": "[3]; [15]", "value": "+VE (Rule of Two hybrid HRM Score ≥8)"}, {"measurement": "Assigned DILI category", "setting": "[4]; Chen et al. 2016 or literature alignment, ref Chen et al. 2016", "value": 3}, {"measurement": "In vivo DILI", "setting": "[4]; ref Aleo 2019", "value": "+VE"}, {"measurement": "In vivo DILI", "setting": "[4]; ref Dawson 2012", "value": "+VE"}, {"measurement": "In vivo DILI", "setting": "[4]; ref Garside 2014", "value": "+VE"}, {"measurement": "In vivo DILI", "setting": "[4]; ref Gustafsson 2014", "value": "+VE"}, {"measurement": "In vivo DILI", "setting": "[4]; ref Proctor 2017", "value": "+VE"}, {"measurement": "In vivo DILI", "setting": "[4]; ref Schadt 2015", "value": "+VE"}, {"measurement": "In vivo DILI", "setting": "[4]; ref Vorrink 2018", "value": "+VE"}, {"measurement": "In vivo DILI", "setting": "[4]; ref Williams 2019", "value": "+VE"}, {"measurement": "PHH/100xCmax, Proctor (2017)", "setting": "PHH; 2D PHH, ATP, IC50 < 100 × Cmax.tot, ref Proctor et al. 2017", "value": "-VE"}, {"measurement": "PHH/100uM, Proctor (2017)", "setting": "PHH; 2D PHH, ATP, IC50 threshold 100 µM, ref Proctor et al. 2017", "value": "-VE"}, {"measurement": "PHH ATP <100uM", "setting": "PHH; [16]", "value": "-VE"}, {"measurement": "HepaRG <25x Avg Cmax ATP", "setting": "HepaRG spheroids; HepaRG, ATP endpoint, cut-off <25x Avg Cmax", "value": "+ve"}, {"measurement": "HepaRG <100x Avg Cmaxu ATP", "setting": "HepaRG spheroids; HepaRG, ATP endpoint, cut-off <100x Avg Cmaxu", "value": "-ve"}, {"measurement": "HepaRG <25x Avg Cmax HCS", "setting": "HepaRG spheroids; HepaRG, HCS endpoints, cut-off <25x Avg Cmax", "value": "+ve"}, {"measurement": "HepaRG <100x Avg Cmaxu HCS", "setting": "HepaRG spheroids; HepaRG, HCS endpoints, cut-off <100x Avg Cmaxu", "value": "-ve"}, {"measurement": "HepaRG <25x Avg Cmax All", "setting": "HepaRG spheroids; HepaRG, all endpoints (ATP and HCS), cut-off <25x Avg Cmax", "value": "+ve"}, {"measurement": "HepaRG Cmax max All", "setting": "HepaRG spheroids; HepaRG, all endpoints, Cmax max used", "value": "+ve"}, {"measurement": "HepaRG Cmax min All", "setting": "HepaRG spheroids; HepaRG, all endpoints, Cmax min used", "value": "+ve"}, {"measurement": "HepaRG <10 uM All", "setting": "HepaRG spheroids; HepaRG, all endpoints, cut-off <10 uM", "value": "-ve"}, {"measurement": "HepaRG <100x Avg Cmaxu All", "setting": "HepaRG spheroids; HepaRG, all endpoints, cut-off <100x Avg Cmaxu", "value": "-ve"}, {"measurement": "AC50", "setting": "HepaRG spheroids; HepaRG, read-out: ATP endpoint AC50", "value": 74.7, "unit": "µM"}, {"measurement": "minimal effective concentration", "setting": "HepaRG spheroids; HepaRG, read-out: ATP endpoint MEC", "value": 35.2, "unit": "µM"}, {"measurement": "AC50", "setting": "HepaRG spheroids; HepaRG, read-out: HCS endpoint AC50", "value": 125, "unit": "µM"}, {"measurement": "minimal effective concentration", "setting": "HepaRG spheroids; HepaRG, read-out: HCS endpoint MEC", "value": 40, "unit": "µM"}, {"measurement": "DILI prediction HepaRG spheroids (HCS-MEC)", "setting": "HepaRG spheroids; [14]", "value": "+VE (MEC < 25 × Cmax.tot cut-off)"}, {"measurement": "hLiMTs ATP <20 x Cmax", "setting": "PHH spheroids; In vitro Assay, ref Vorrink 2018", "value": "+VE (IC20 < 20 × Cmax.tot cut-off)"}, {"measurement": "DILI in vitro assay prediction, Vorrink (2018)", "setting": "PHH spheroids; PHH spheroids, ATP, 14 days, IC20 < 20 × Cmax.tot, ref Vorrink et al. 2018", "value": "+VE (IC20 < 20 × Cmax.tot cut-off)"}, {"measurement": "Bayesian Machine Learning DILI prediction, Williams (2019)", "setting": "[5]; Bayesian modeling, ref Williams et al. 2019", "value": "+VE"}, {"measurement": "Bayesian Machine Learning", "setting": "[5]; In vitro Assay, ref Williams 2019", "value": "+VE"}, {"measurement": "DILI in vitro assay prediction, Schadt (2015)", "setting": "[6]; BSEP & Metabolism based, ref Schadt et al. 2015", "value": "+VE"}, {"measurement": "Cellular toxicity (3T3 cells)", "setting": "[6]; [17]", "value": "-VE"}, {"measurement": "Combined Assay", "setting": "[6]; [17]", "value": "+VE"}, {"measurement": "GSH adduct HML", "setting": "[6]; [17]", "value": "+VE"}, {"measurement": "Hepatocyte cellular toxicity", "setting": "[6]; [17]", "value": "+VE"}, {"measurement": "MitoTox 3T3", "setting": "[6]; [17]", "value": "-VE"}, {"measurement": "TDI CYP3A4", "setting": "[6]; [17]", "value": "-VE"}, {"measurement": "hBSEP inhibition", "setting": "[6]; [17]", "value": "+VE"}, {"measurement": "DILI severity category (Chen et al. [2016])", "setting": "[7]; LTKB DILIrank category, ref Chen et al. 2016", "value": "Most"}, {"measurement": "DILI severity category (Chen 2016)", "setting": "[7]; human DILI classification, LTKB DILIrank, ref Chen et al. 2016", "value": "Most"}, {"measurement": "DILI severity category", "setting": "[7]; human DILI severity, ref Chen et al.", "value": "Most"}, {"measurement": "DILI +VE (5-8), DILI -VE (-4)", "setting": "[7]; ref Chen 2016", "value": "+VE"}, {"measurement": "DILI severity category", "setting": "[7]; ref Chen 2016", "value": "vMost-DILI-Concern"}, {"measurement": "THLE-Null", "setting": "[8]", "value": "-VE"}, {"measurement": "THLE-Null/3A4", "setting": "[8]", "value": "-VE"}, {"measurement": "Human plasma Cmax,u", "setting": "[9]", "value": 0.149, "unit": "µM"}, {"measurement": "detection at 10 × Cmax.tot cut-off", "setting": "PHH 3D spheroids", "value": "only detected by one of three donors"}, {"measurement": "substrate for hepatic uptake transporter OATP1B1", "setting": "OATP1B1", "value": "known substrates"}, {"measurement": "fu", "setting": "[10]", "value": 0.020}, {"measurement": "hLiMTs ATP <100uM", "setting": "hLiMTs [11]; [16]", "value": "+VE (IC50 threshold of 100 µM)"}, {"measurement": "hLiMTs/100xCmax, Proctor (2017)", "setting": "hLiMTs [11]; hLiMTs, ATP, IC50 < 100 × Cmax.tot, ref Proctor et al. 2017", "value": "+VE (IC50 < 100 × Cmax.tot)"}, {"measurement": "hLiMTs/100uM, Proctor (2017)", "setting": "hLiMTs [11]; hLiMTs, ATP, IC50 threshold 100 µM, ref Proctor et al. 2017", "value": "+VE (IC50 threshold of 100 µM)"}, {"measurement": "Inhibition of rBsep cutoff<1& cmax u>.2", "setting": "rBsep", "value": "+VE"}, {"measurement": "Inhibition of rBsep cutoff<3", "setting": "rBsep", "value": "+VE"}, {"measurement": "Cluster 1-6 +VE Assay", "setting": "[12]", "value": "-VE"}, {"measurement": "DILI Score (FDA) (1-8)", "setting": "[13]", "value": 7}]}]}
